Measurements published in patent publication EP4702986A1, “POLYPEPTIDE AND USE THEREOF” (Biocells (Beijing) Biotech Co., Ltd., priority 2023, dated 2024).
Read-outs that look alike come from different tables or passages of the source. One block for each compound: values may come before it. Numbered stars: 1 amine (or outer) side, 2 acyl side, 3 side chain; on linkers, the order of the positions; unused ones are H or OH. Bridge positions count the residues as written; N and C are the ends. Square brackets hold non-standard residues; d marks the D form. Side chains are listed from the residue outwards. Peptide text beside a SMILES is read from it. * marks the point of attachment. C18 diacid = O=C(O)CCCCCCCCCCCCCCCCC(=O)*; γGlu = O=C(O)[C@H](CCC(=O)[*:2])N[*:1]; Fumaryl(OMe) = COC(=O)/C=C/C(=O)*; Suc = O=C(CCC(=O)[*:2])[*:1]; Orn = NCCC[C@H](N)C(=O)O; Dab = NCC[C@H](N)C(=O)O; AEEA = NCCOCCOCC(=O)O

Target: T1, human ETA receptor (Homo sapiens, UniProt P25101)
T1 construct: expressed in transfected cells; host or cells: 293T-17 cells, transient transfection
T1 sequence (P25101 21-427): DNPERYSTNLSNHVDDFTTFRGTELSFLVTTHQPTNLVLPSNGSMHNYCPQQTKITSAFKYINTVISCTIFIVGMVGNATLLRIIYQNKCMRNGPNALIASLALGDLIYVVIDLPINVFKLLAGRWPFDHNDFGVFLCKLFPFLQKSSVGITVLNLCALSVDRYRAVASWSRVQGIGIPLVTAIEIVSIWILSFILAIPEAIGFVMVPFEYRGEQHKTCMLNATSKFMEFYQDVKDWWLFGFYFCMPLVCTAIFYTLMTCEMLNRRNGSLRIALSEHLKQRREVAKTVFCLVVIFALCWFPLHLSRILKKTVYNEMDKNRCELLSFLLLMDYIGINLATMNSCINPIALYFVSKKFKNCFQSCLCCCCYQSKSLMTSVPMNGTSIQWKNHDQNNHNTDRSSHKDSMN
Experiment: Selectivity of polypeptides on human ETA receptor (IP-One Gq kit, % of positive control ET1)
Format: cell-based
Conditions: read-out: hETAR agonist activity, percentage of activity relative to ET1
Procedure: 293T-17 cells were seeded at a density of 650,000 cells per well in a 6-well plate and cultured overnight in an incubator at 37°C and 5% CO2. Afterward, the cells were transfected with an expression vector, PCDNA3.1-hETA which contained a human ETA receptor gene, at a plasmid concentration of 2.5 µg per well. The cells were further cultured for 48 hours, and green fluorescence expression was observed under a fluorescence microscope. The cells were then digested with trypsin and counted. The activity of compounds on the human ETA receptor was determined with the IP-One Gq kit from Cisbio Bioassays. The cells were suspended in Stim Buffer provided in the kit and the cell suspension was added to a 96-well detection plate at 7 µL cell suspension (containing 30,000 cells) per well. The polypeptides to be screened for activity (prepared according to the Preparation Example of the invention) and polypeptide human endothelin ET1 as positive control were dissolved in Stim B to be at a concentration of 2×, and 7 µL was added to the test cells, while 7 µL of PBS solution was added to the cells in the negative control wells. Human endothelin ET1 (ET1: […] (C1-C15,C3-C11)) set forth in SEQ ID No. 85 was used as the positive control polypeptide. The plate was sealed and incubated at 37°C for 1 h in a cell culture incubator. Detection wells, positive control wells, and PBS control wells were each added with 3 µL of IP1 d2 working solution and 3 µL of IP1 Tb cryptotate Antibody working solution. The plate was sealed and incubated in the dark at room temperature (25°C±5°C) for 1 h. The plate seal was removed, and the […] at 665 nm and 620 nm was measured with an ID5 microplate reader. The ratio of the acceptor emission signal to the donor emission signal, i.e., the value of (signal at 665 nm/signal at 620 nm)×10^4, was calculated for each well. With F3 representing the average value of values of signal at 665 nm/signal at 620 nm determined for the test sample at a specific concentration, F5 representing the average value of values of signal at 665 nm/signal at 620 nm determined for the positive control human endothelin ET1 at the same concentration, and T3 representing the average value of values of signal at 665 nm/signal at 620 nm determined for the PBS negative control, the percentage of activity of the test polypeptide sample relative to the positive control sample ET1 = (F3-T3)×100/(F5-T3) (see Table 6). hETA sequence (NCBI accession number L06622.1).

Structure (SMILES): CC[C@H](C)[C@H](NC(=O)[C@H](CC(=O)O)NC(=O)[C@H](CC(C)C)NC(=O)[C@H](Cc1c[nH]cn1)NC(=O)[C@H](C)NC(=O)[C@H](Cc1ccccc1)NC(=O)[C@H](Cc1ccc(O)cc1)NC(=O)[C@@H]1CCNC(=O)CC[C@H](NC(=O)[C@H](CC(=O)O)NC(=O)CCC(=O)O)C(=O)N[C@@H](CCC(=O)O)C(=O)N[C@@H](C)C(=O)N1)C(=O)N[C@H](C(=O)N[C@@H](Cc1c[nH]c2ccccc12)C(=O)O)[C@@H](C)CC [BX-49] (Suc-DEEA[Dab]YFAHLDIIW-OH; lactam 2-5)
- activation at 0.01 µM (@10nM): -20.9%
- activation at 0.1 µM (@100nM): -15.4%

Structure (SMILES): CC[C@H](C)[C@H](NC(=O)[C@H](CC(=O)O)NC(=O)[C@@H]1CCCCNC(=O)CC[C@H](NC(=O)[C@H](CCC(=O)O)NC(=O)[C@H](CCC(=O)O)NC(=O)[C@H](CC(=O)O)NC(=O)CCC(=O)O)C(=O)N[C@@H](C(C)C)C(=O)N[C@@H](Cc2ccc(O)cc2)C(=O)N[C@@H](Cc2ccccc2)C(=O)N[C@@H](C)C(=O)N[C@@H](Cc2c[nH]cn2)C(=O)N1)C(=O)N[C@H](C(=O)N[C@@H](Cc1c[nH]c2ccccc12)C(=O)O)[C@@H](C)CC [BX-50, Suc-DEE cyclo(EVYFAHK)DIIW] (Suc-DEEEVYFAHKDIIW-OH; lactam 4-10)
- activation at 0.01 µM: 10.1%
- activation at 0.1 µM: -6.92%

Structure (SMILES): CC[C@H](C)[C@H](NC(=O)[C@H](CC(=O)O)NC(=O)[C@H](CCCN)NC(=O)[C@H](Cc1c[nH]cn1)NC(=O)[C@H](C)NC(=O)[C@H](Cc1ccccc1)NC(=O)[C@H](Cc1ccc(O)cc1)NC(=O)[C@@H](NC(=O)[C@H](CCC(=O)O)NC(=O)[C@H](CCC(=O)O)NC(=O)[C@H](CCC(=O)O)NC(=O)[C@H](CC(=O)O)NC(=O)CCC(=O)O)C(C)C)C(=O)N[C@H](C(=O)N[C@@H](Cc1c[nH]c2ccccc12)C(=O)O)[C@@H](C)CC [BX-53, Suc-DEEEVYFAHOrnDIIW] (Suc-DEEEVYFAH[Orn]DIIW-OH)
- activation at 0.01 µM: -17.6%
- activation at 0.1 µM: -17%

Structure (SMILES): CC[C@H](C)[C@H](NC(=O)[C@H](CC(=O)O)NC(=O)[C@H](CCCCNC(=O)CC[C@H](NC(=O)COCCOCCNC(=O)COCCOCCNC(=O)CCCCCCCCCCCCCCCCC(=O)O)C(=O)O)NC(=O)[C@H](Cc1c[nH]cn1)NC(=O)[C@H](C)NC(=O)[C@H](Cc1ccccc1)NC(=O)[C@H](Cc1ccc(O)cc1)NC(=O)[C@@H](NC(=O)[C@H](C)NC(=O)[C@H](CCC(=O)O)NC(=O)[C@H](CCC(=O)O)NC(=O)[C@H](CC(=O)O)NC(=O)CCC(=O)O)C(C)C)C(=O)N[C@H](C(=O)N[C@@H](Cc1c[nH]c2ccccc12)C(=O)O)[C@@H](C)CC [BX-74] (Suc-DEEAVYFAHK([γGlu-AEEA-AEEA-C18 diacid])DIIW-OH)
- activation at 10 µM: -2.64%
- activation at 100 µM: -13.5%

Second part, the compound after the results:

- activation at 1 µM: 13.5%
- activation at 10 µM (@10µM): 17%
Structure (SMILES): CC[C@H](C)[C@H](NC(=O)[C@H](CC(=O)O)NC(=O)[C@H](CC(C)C)NC(=O)[C@H](Cc1c[nH]cn1)NC(=O)[C@H](C)NC(=O)[C@H](Cc1ccccc1)NC(=O)[C@H](Cc1ccc(O)cc1)NC(=O)[C@H](CCCCN)NC(=O)[C@H](C)NC(=O)[C@H](CCC(=O)O)NC(=O)[C@H](CCC(=O)O)NC(=O)[C@H](CC(=O)O)NC(=O)CCC(=O)O)C(=O)N[C@H](C(=O)N[C@@H](Cc1c[nH]c2ccccc12)C(=O)O)[C@@H](C)CC [BX-43] (Suc-DEEAKYFAHLDIIW-OH)

- activation at 1 µM: 14.7%
Structure (SMILES): CC[C@H](C)[C@H](NC(=O)[C@H](CC(=O)O)NC(=O)[C@H](CCCCN)NC(=O)[C@H](Cc1c[nH]cn1)NC(=O)[C@H](C)NC(=O)[C@H](Cc1ccccc1)NC(=O)[C@H](Cc1ccc(O)cc1)NC(=O)[C@@H](NC(=O)[C@H](CCC(=O)O)NC(=O)[C@H](CCC(=O)O)NC(=O)[C@H](CCC(=O)O)NC(=O)[C@H](CC(=O)O)NC(=O)CCC(=O)O)C(C)C)C(=O)N[C@H](C(=O)N[C@@H](Cc1c[nH]c2ccccc12)C(=O)O)[C@@H](C)CC [BX-45] (Suc-DEEEVYFAHKDIIW-OH)

- activation at 10 µM (@10µM): -18.5%
- activation at 100 µM (@100µM): -8.66%
Structure (SMILES): CC[C@H](C)[C@H](NC(=O)[C@H](CC(=O)O)NC(=O)[C@H](CCCCNC(=O)COCCOCCNC(=O)COCCOCCNC(=O)CC[C@H](NC(=O)CCCCCCCCCCCCCCCCC(=O)O)C(=O)O)NC(=O)[C@H](Cc1c[nH]cn1)NC(=O)[C@H](C)NC(=O)[C@H](Cc1ccccc1)NC(=O)[C@H](Cc1ccc(O)cc1)NC(=O)[C@@H](NC(=O)[C@H](CCC(=O)O)NC(=O)[C@H](CCC(=O)O)NC(=O)[C@H](CCC(=O)O)NC(=O)[C@H](CC(=O)O)NC(=O)CCC(=O)O)C(C)C)C(=O)N[C@H](C(=O)N[C@@H](Cc1c[nH]c2ccccc12)C(=O)O)[C@@H](C)CC [BX-54] (Suc-DEEEVYFAHK([AEEA-AEEA-γGlu-C18 diacid])DIIW-OH)

- activation at 10 µM (@10µM): -5.95%
- activation at 100 µM (@100µM): -2.01%
Structure (SMILES): CC[C@H](C)[C@H](NC(=O)[C@H](CC(=O)O)NC(=O)[C@H](CCCCN)NC(=O)[C@H](Cc1c[nH]cn1)NC(=O)[C@H](C)NC(=O)[C@H](Cc1ccccc1)NC(=O)[C@H](Cc1ccc(O)cc1)NC(=O)[C@@H](NC(=O)[C@H](CCC(=O)O)NC(=O)[C@H](CCC(=O)O)NC(=O)[C@H](CCC(=O)O)NC(=O)[C@H](CC(=O)O)NC(=O)/C=C/C(=O)OC)C(C)C)C(=O)N[C@H](C(=O)N[C@@H](Cc1c[nH]c2ccccc12)C(=O)O)[C@@H](C)CC [BX-58] ({Fumaryl(OMe)}-DEEEVYFAHKDIIW-OH)
